Values joined by “and” are separate entries in the source; they are usually repeats but may differ in a detail not shown here. Equal entries are not always repeated.
Key:
[1] = test system: P. falciparum 3D7; experiment: Method III growth inhibition assay (HRP2-ELISA, 3 days), 3D7; type: cell-based, Plasmodium falciparum
[2] = test system: P. falciparum Dd2; experiment: Method III growth inhibition assay (HRP2-ELISA, 3 days), Dd2; type: cell-based, Plasmodium falciparum
[3] = test system: P. falciparum 3D7; experiment: Method II growth-inhibition assay (PicoGreen, 3 days), 3D7; type: cell-based; conditions: Plasmodium falciparum; 3D7, method II; read-out: IC50 3D7-II
From the text: (§1) Fidock (Columbia University).

[4] = test system: P. falciparum NF54; experiment: Method II growth-inhibition assay (PicoGreen, 3 days), NF54; type: cell-based; conditions: Plasmodium falciparum; chloroquine-sensitive NF54, method II
From the text: as §1

[5] = test system: P. falciparum 3D7; experiment: IDP rescue assay, P. falciparum 3D7; type: cell-based; conditions: Plasmodium falciparum
Experimental: (§2) Fidock (Columbia University). […] P. falciparum cultures were treated as described in method II. For IDP (Isoprenoids.com) rescue experiments, 125 μM IDP was added to the appropriate wells for the duration of the experiment. The well-described DXR inhibitor FSM was used as a positive control. IC50 values were calculated by nonlinear regression analysis using GraphPad Prism software. All experiments were performed at least in triplicate, and data reported represent the mean ± SD.

[6] = test system: P. falciparum NF54; experiment: IDP rescue assay, P. falciparum NF54; type: cell-based; conditions: Plasmodium falciparum
Experimental: as §2

[7] = test system: Hep G2 cells; experiment: Hep G2 viability assay (counter screen); type: cell-based, human; conditions: Homo sapiens, HepG2; at 10 μM
Experimental: HepG2 cells (2 × 10^5 cells per well) were seeded in 24-well, flat-bottomed plates. Culturing of cells, incubations, and OD measurements were performed as described previously with small modifications.[58] 24 h after seeding the cells, the incubation was started by the addition of compounds in a final DMSO concentration of 1%. The metabolic activity of the living cell mass was determined after 48 h. At least three independent measurements were performed for each compound. The IC50 values were determined during logarithmic growth using GraphPad Prism software. All experiments were performed at least in triplicate, and data reported represent the mean ± SD.

[8] = 3D7, method III (HRP2 assay), drc package of R, read-out: IC50 P. falciparum 3D7 (method III)
[9] = table of compounds as SMILES with biological activity, strain not given, values match 3D7 method III, read-out: IC50
[10] = chloroquine-resistant Dd2, method III
[11] = Plasmodium falciparum, 3D7, 3D7, method III (HRP2 assay), drc package of R, read-out: IC50 P. falciparum 3D7 (method III)
[12] = Plasmodium falciparum, 3D7, table of compounds as SMILES with biological activity, strain not given, values match 3D7 method III, read-out: IC50
[13] = Plasmodium falciparum, DD2, chloroquine-resistant Dd2, method III

Compound | IC50 [1, 8] | IC50 [1, 11] [µM] | IC50 [1, 12] [µM] | IC50 [2, 13] [µM] | also measured
N-(3-Chloro-2-methylphenyl)-5-(pyridin-2-yl)thiazol-2-amine [compound 44] | 3 µM | – | – | – | IC50 [1, 9]: 2.8 µM; IC50 [2, 10]: 2 ± 1 µM
ON=C(Cc1ccc(Cl)cc1)c1ccc(O)nc1 [8Z, 2-(4-Chlorophenyl)-1-(6-hydroxypyridin-3-yl)ethan-1-one oxime] | > 28 µM | – | – | – | IC50 [2, 10]: > 28 µM
COc1ccc2c(c1)c(CO)cn2Cc1ccc(Cl)c(Cl)c1 [compound 21, (1-(3,4-Dichlorobenzyl)-5-methoxy-1H-indol-3-yl)methanol] | – | 19 ± 1 | 18.5 | 54 ± 6 | –
O=CN(O)CCCP(=O)(O)O [FSM, fosmidomycin, reference compound] | – | – | – | – | IC50 [3]: 0.9 ± 0.2 µM; IC50 [4]: 0.7 ± 0.3 µM; IC50 ([5]; 3D7, 72 h, + IDP (125 μM)): 37.4 ± 18.2 µM; IC50 ([5]; 3D7, without IDP): 0.9 ± 0.4 µM; IC50 ([6]; NF54, 72 h, + IDP (125 μM)): 7.8 ± 0.3 µM; IC50 ([6]; NF54, without IDP): 0.9 ± 0.5 µM
Cc1ccc(Nc2nc(-c3ccc(O)c(O)c3)cs2)cc1C [compound 42, 4-(2-((3,4-Dimethylphenyl)amino)thiazol-4-yl)benzene-1,2-diol] | – | 4 ± 1 | 4.4 | 7 ± 1 | –
OCc1cn(Cc2ccc(Cl)c(Cl)c2)c2ccc(F)cc12 [compound 32] | 5 ± 1 µM | < 10 | 5.3 | 8 ± 2 | –
COc1ccc(C(Cc2ccc(Cl)cc2)=NO)cn1 [7E, 2-(4-Chlorophenyl)-1-(6-methoxypyridin-3-yl)ethan-1-one oxime] | 44 ± 10 µM | – | 43.6 | – | IC50 [2, 10]: > 55 µM
OCc1cn(Cc2ccc(Cl)c(Cl)c2)c2ncccc12 [compound 14, (1-(3,4-Dichlorobenzyl)-1H-pyrrolo[2,3-b]pyridin-3-yl)methanol] | – | > 111 | – | 91 ± 18 | –
COc1ccc(C(Cc2ccc(Cl)cc2)=NO)cn1 [7Z, 2-(4-Chlorophenyl)-1-(6-methoxypyridin-3-yl)ethan-1-one oxime] | > 111 µM | – | – | – | IC50 [2, 10]: > 111 µM
Cc1nc(N)sc1-c1csc(Nc2ccccc2C(F)(F)F)n1 [compound 35] | – | 43 ± 2 | – | 48 ± 12 | –
Cc1nc(N)sc1-c1csc(Nc2ccc(Cl)cn2)n1 [compound 47] | – | 1 | – | 2 | IC50 [3]: 2 ± 1 µM; IC50 [4]: 2 µM; IC50 ([5]; 3D7, 72 h, + IDP (125 μM)): 2.2 µM; IC50 ([5]; 3D7, without IDP): 2 ± 0.7 µM; IC50 ([6]; NF54, 72 h, + IDP (125 μM)): 1.2 µM; IC50 ([6]; NF54, without IDP): 1.6 ± 0.3 µM
Cc1cn(Cc2ccc(Cl)c(Cl)c2)c2ccccc12 [compound 26, 1-(3,4-Dichlorobenzyl)-3-methyl-1H-indole] | 10.2 µM | ~10 | – | 11 ± 5 | –
OCc1cn(Cc2ccc(Cl)cc2)c2ccccc12 [compound 20] | – | 28 ± 14 | 27.2 | 22 ± 5 | –
OCc1cn(Cc2ccc(Cl)c(Cl)c2)c2c(Cl)cccc12 [compound 23, (7-Chloro-1-(3,4-dichlorobenzyl)-1H-indol-3-yl)methanol] | 14 ± 1 µM | 13 | – | 36 ± 16 | –
OCc1cn(Cc2cccc(Cl)c2)c2cccc(F)c12 [compound 24, (1-(3-Chlorobenzyl)-4-fluoro-1H-indol-3-yl)methanol] | – | 12 ± 1 | – | 10 ± 1 | –
COc1cccc2c1c(CO)cn2Cc1ccc(Cl)c(Cl)c1 [compound 31, (1-(3,4-Dichlorobenzyl)-4-methoxy-1H-indol-3-yl)methanol] | – | 6 ± 2 | 5.5 | 5 ± 2 | –
COc1ccc(C(Cc2ccc(Cl)cc2)=NO)c(O)c1 [compound 9] | – | 47 ± 15 | 46.8 | 24 ± 6 | –
OCCc1cn(Cc2ccc(Cl)c(Cl)c2)c2ccccc12 [compound 19, 2-(1-(3,4-Dichlorobenzyl)-1H-indol-3-yl)ethan-1-ol] | – | 29 ± 1 | 28.9 | 12 ± 3 | –
4-(2-((4-(Trifluoromethyl)phenyl)amino)thiazol-5-yl)benzene-1,3-diol [compound 38] | 22 ± 6 µM | – | – | – | IC50 [1, 9]: 22.1 µM
NN=C(Cc1ccc(Cl)cc1)c1ccc(O)cc1O [compound 12] | – | 16 | – | 14 ± 5 | IC50 [3]: 46 ± 3 µM; IC50 [4]: 45 ± 7 µM
N^2-(3-Methoxyphenyl)-4′-methyl-[5,5′-bithiazole]-2,2′-diamine [compound 39] | 18 µM | – | – | – | IC50 [1, 9]: 17.9 µM

Compound | IC50 [1, 8] | IC50 [1, 11] [µM] | IC50 [1, 12] [µM] | IC50 [2, 13] [µM] | also measured
COc1cccc2c(CO)cn(Cc3ccc(Cl)c(Cl)c3)c12 [compound 16] | – | > 56 | 55.5 | 48 ± 13 | –
2′,4′-Dimethyl-N-(4-(trifluoromethyl)phenyl)-[5,5′-bithiazol]-2-amine [compound 41] | ~10 µM and 10 µM | – | – | – | IC50 [1, 9]: 9.5 µM; IC50 [2, 10]: 5 µM
OCc1nn(Cc2ccc(Cl)c(Cl)c2)c2ccccc12 [compound 18, (1-(3,4-Dichlorobenzyl)-1H-indazol-3-yl)methanol] | – | 34 | 33.9 | 70 ± 21 | –
OCc1cn(-c2ccc(Cl)c(Cl)c2)c2ccccc12 [compound 15, (1-(3,4-Dichlorophenyl)-1H-indol-3-yl)methanol] | – | > 56 | 55.5 | 54 ± 6 | –
Clc1ccc(Cn2ccc3ccccc32)cc1Cl [compound 28, 1-(3,4-Dichlorobenzyl)-1H-indole] | 8.1 µM | ~8 | – | 18 ± 7 | –
5-(Pyridin-4-yl)-N-(4-(trifluoromethyl)phenyl)thiazol-2-amine [compound 36] | 34 ± 2 µM | – | – | – | IC50 [1, 9]: 34.2 µM
Cc1ccc(Nc2nc(-c3ccccn3)cs2)cc1C [compound 46, N-(3,4-Dimethylphenyl)-4-(pyridin-2-yl)thiazol-2-amine] | – | 2 ± 1 | 1.5 | 2 | IC50 [3]: 2 µM; IC50 [4]: 2 ± 1 µM; IC50 ([5]; 3D7, 72 h, + IDP (125 μM)): 2.8 µM; IC50 ([5]; 3D7, without IDP): 2.3 ± 0.4 µM; IC50 ([6]; NF54, 72 h, + IDP (125 μM)): 1.2 µM; IC50 ([6]; NF54, without IDP): 2.1 ± 0.8 µM
OCc1cn(Cc2ccccc2)c2cccc(F)c12 [compound 25, (1-Benzyl-4-fluoro-1H-indol-3-yl)methanol] | – | 12 ± 2 | 11.9 | 9 | –
Cc1nc(N)sc1-c1csc(Nc2cccc(C(F)(F)F)c2)n1 [compound 45] | – | 3 | 2.5 | 5 | –
OCc1cn(Cc2ccccc2)c2ccc(Br)cc12 [compound 30, (1-Benzyl-5-bromo-1H-indol-3-yl)methanol] | 6 ± 1 µM | < 10 | 6.1 | 5 ± 3 | –
N#Cc1ccc2c(CO)cn(Cc3ccc(Cl)c(Cl)c3)c2c1 [compound 17] | – | 44 ± 19 | 43.8 | 44 ± 9 | –
COc1ccc(CNCc2cn(Cc3ccc(Cl)c(Cl)c3)c3ccccc23)c(OC)c1 [compound 34, 1-(1-(3,4-Dichlorobenzyl)-1H-indol-3-yl)-N-(2,4-dimethoxybenzyl)methan-amine] | – | – | – | 21 ± 6 | inhibition at 10 µM [7]: 90%
COc1cccc2c1c(CO)cn2Cc1cccc(Cl)c1 [compound 22, (1-(3-Chlorobenzyl)-4-methoxy-1H-indol-3-yl)methanol] | – | 16 ± 3 | 13.8 | 14 ± 4 | IC50 [1, 9]: 15.6 µM
Oc1ccc(-c2csc(Nc3cccc(C(F)(F)F)c3)n2)c(O)c1 [compound 37] | – | 23 ± 1 | – | 19 ± 2 | –
O=[N+]([O-])c1ccc2c(c1)c(CO)cn2Cc1ccc(Cl)c(Cl)c1 [compound 29, (1-(3,4-Dichlorobenzyl)-5-nitro-1H-indol-3-yl)methanol] | 7 µM | < 10 | 7.2 | 4 ± 1 | –
ON=C(Cc1ccc(Cl)cc1)c1ccc(O)nc1 [8E, 2-(4-Chlorophenyl)-1-(6-hydroxypyridin-3-yl)ethan-1-one oxime] | > 111 µM | – | – | – | IC50 [2, 10]: > 111 µM
Cc1ccc(C)c(Nc2nc(-c3ccccn3)cs2)c1 [compound 43, N-(2,5-Dimethylphenyl)-4-(pyridin-2-yl)thiazol-2-amine] | – | 4 ± 2 | 3.7 | 5 ± 1 | –
CON=C(Cc1ccc(Cl)cc1)c1ccc(O)cc1O [compound 11, (E)-2-(4-Chlorophenyl)-1-(2,4-dihydroxyphenyl)ethan-1-one o-Methyl Oxime] | – | 28 ± 9 | – | 19 ± 3 | –
OCc1cn(Cc2ccc(Cl)c(Cl)c2)c2cc(F)ccc12 [compound 27, (1-(3,4-Dichlorobenzyl)-6-fluoro-1H-indol-3-yl)methanol] | 9 ± 2 µM | < 10 | 8.9 | 10 ± 5 | –
N^2-(3-Chloro-2-methylphenyl)-4′-methyl-[5,5′-bithiazole]-2,2′-diamine [compound 40] | 16 ± 2 µM | – | – | – | IC50 [1, 9]: 15.9 µM
